From US11800867B2, “Methods of repelling biting arthropods, reducing pathogen spread and treating arthropod infestation” (priority 2016, dated 2023)
Values joined by “and” are separate entries in the source; they are usually repeats but may differ in a detail not shown here. Equal entries are not always repeated.

Experiments:
[1] = system: biting midges (Culicoides sp.); experiment: Treated filter paper knockdown (KD) and mortality trial (Example 4); format: in vivo; conditions: Nootkatone 1% in ethanol on filter paper
Procedure: (§1) A laboratory trial was conducted to assess the efficacy of nootkatone applied to filter paper against aphids (Schizaphis gramium), dust mites (Dermatophagoides sp.), termites (Reticulitermes flavipes), deer ticks (Ixodes scapularis), biting midges (Culicoides sp.), fire ants (Solenopsis invicta), and mosquitoes (Aedes aegypti and Culex), in terms of knockdown (KD) and mortality. One concentration (1% in ethanol) of nootkatone was assessed for most species, but three concentrations (0.25%, 0.5%, and 1% in ethanol) were assessed for mosquitoes. A negative control group, consisting of filter paper treated with ethanol, was also assessed for comparison purposes for each species.
(§2) Test systems were introduced to treated filter paper, allowed to dry, and then introduced into treatment chamber, where treated arthropods were monitored at intervals up to 72 hours. If 100% mortality was obtained prior to 72 hours, the individual study was halted.
(§3) Midges and mosquitoes—5 replicates of 10 insects per treatment were tested. Inverted 10 ounce (295 ml) clear plastic cups with a 0.5 inch (1.27 cm) hole burned into the center of the bottom, and with the sides coated with Fluon® was used at the treatment containers. The bottoms of the containers consisted of Petri dish lids 3.54 inches (9.0 cm) in diameter lined with a treated filter paper circle the same diameter. The cup was placed over the filter paper in the lid and both were secured in place using 2 rubber bands. The insects were introduced through the hole in the cup, and a plastic disc was placed over the opening to prevent escapes.
(§4) Readings were discontinued if treated mortality reaches […], or control mortality exceeds 20%.

[2] = system: Yellow Fever mosquito (Aedes aegypti); experiment: as above; format: in vivo
Procedure: as §1, §2, §3, §4

[3] = Nootkatone 0.25% in ethanol on filter paper, 30 minutes post introduction
[4] = Nootkatone 0.25% in ethanol on filter paper, 1 hour post introduction
[5] = Nootkatone 0.25% in ethanol on filter paper, 4 hours post introduction
[6] = Nootkatone 0.25% in ethanol on filter paper, 8 hours post introduction
[7] = Nootkatone 0.25% in ethanol on filter paper, 24 hours post introduction
[8] = Nootkatone 0.25% in ethanol on filter paper, 48 hours post introduction
[9] = Nootkatone 0.25% in ethanol on filter paper, 72 hours post introduction
[10] = Nootkatone 0.5% in ethanol on filter paper, 30 minutes post introduction
[11] = Nootkatone 0.5% in ethanol on filter paper, 1 hour post introduction
[12] = Nootkatone 0.5% in ethanol on filter paper, 4 hours post introduction
[13] = Nootkatone 0.5% in ethanol on filter paper, 8 hours post introduction
[14] = Nootkatone 0.5% in ethanol on filter paper, 24 hours post introduction
[15] = Nootkatone 0.5% in ethanol on filter paper, 48 hours post introduction
[16] = Nootkatone 0.5% in ethanol on filter paper, 72 hours post introduction
[17] = Nootkatone 1% in ethanol on filter paper, 30 minutes post introduction
[18] = Nootkatone 1% in ethanol on filter paper, 1 hour post introduction
[19] = Nootkatone 1% in ethanol on filter paper, 4 hours post introduction
[20] = Nootkatone 1% in ethanol on filter paper, 8 hours post introduction
[21] = Nootkatone 1% in ethanol on filter paper, 24 hours post introduction
[22] = Nootkatone 1% in ethanol on filter paper, 48 hours post introduction
[23] = Nootkatone 1% in ethanol on filter paper, 72 hours post introduction

SMILES: C=C(C)[C@@H]1CCC2=CC(=O)C[C@@H](C)[C@]2(C)C1 [Nootkatone, nootkatone]
- Means Affected ([1]; 4 hours post introduction): 100.0%
- Means Dead ([1]; 4 hours post introduction): 78.7%
- Means KD ([1]; 4 hours post introduction): 21.3%
- Means Affected ([1]; 24 hours post introduction): 100.0%
- Means Dead ([1]; 24 hours post introduction): 100%
- Means KD ([1]; 24 hours post introduction): 0.0%
- Means Dead ([1]; 24 hours post introduction, listed as nootkatone): 100%
- Means Affected [2, 3]: 17.8%
- Means Dead [2, 3]: 17.8%
- Means KD [2, 3]: 0.0%
- Means Affected [2, 4]: 20.0%
- Means Dead [2, 4]: 20.0%
- Means KD [2, 4]: 0.0%
- Means Affected [2, 5]: 20.0%
- Means Dead [2, 5]: 20.0%
- Means KD [2, 5]: 0.0%
- Means Affected [2, 6]: 17.8%
- Means Dead [2, 6]: 15.6%
- Means KD [2, 6]: 2.2%
- Means Affected [2, 7]: 17.8%
- Means Dead [2, 7]: 13.3%
- Means KD [2, 7]: 4.4%
- Means Affected [2, 8]: 17.6%
- Means Dead [2, 8]: 15.6%
- Means KD [2, 8]: 2.0%
- Means Affected [2, 9]: 26.0%
- Means Dead [2, 9]: 17.6%
- Means KD [2, 9]: 8.4%
- Means Affected [2, 10]: 0.0%
- Means Dead [2, 10]: 0.0%
- Means KD [2, 10]: 0.0%
- Means Affected [2, 11]: 0.0%
- Means Dead [2, 11]: 0.0%
- Means KD [2, 11]: 0.0%
- Means Affected [2, 12]: 5.3%
- Means Dead [2, 12]: 0.0%
- Means KD [2, 12]: 5.3%
- Means Affected [2, 13]: 29.9%
- Means Dead [2, 13]: 0.0%
- Means KD [2, 13]: 29.9%
- Means Affected [2, 14]: 83.1%
- Means Dead [2, 14]: 22.5%
- Means KD [2, 14]: 60.6%
- Means Affected [2, 15]: 87.1%
- Means Dead [2, 15]: 72.0%
- Means KD [2, 15]: 15.1%
- Means Affected [2, 16]: 100.0%
- Means Dead [2, 16]: 92% and 92.5%
- Means KD [2, 16]: 7.5%
- Means Affected [2, 17]: 0.0%
- Means Dead [2, 17]: 0.0%
- Means KD [2, 17]: 0.0%
- Means Affected [2, 18]: 1.8%
- Means Dead [2, 18]: 0.0%
- Means KD [2, 18]: 1.8%
- Means Affected [2, 19]: 46.9%
- Means Dead [2, 19]: 0.0%
- Means KD [2, 19]: 46.9%
- Means Affected [2, 20]: 80.4%
- Means Dead [2, 20]: 0.0%
- Means KD [2, 20]: 80.4%
- Means Affected [2, 21]: 84.0%
- Means Dead [2, 21]: 65.5%
- Means KD [2, 21]: 18.5%
- Means Affected [2, 22]: 90.0%
- Means Dead [2, 22]: 80.4%
- Means KD [2, 22]: 9.6%
- Means Affected [2, 23]: 94.0%
- Means Dead [2, 23]: 92%
- Means KD [2, 23]: 2.0%
